Patent publication US11572399B2, “Long-acting GIP peptide analogues” (University of Copenhagen, priority 2017, dated 2023)
Where two headings read alike, the source gives them in different places. Numbered stars: 1 amine (or outer) side, 2 acyl side, 3 side chain; on linkers, the order of the positions; unused ones are H or OH. Side chains are listed from the residue outwards. Peptide text beside a SMILES is read from it. * marks the point of attachment. γGlu = O=C(O)[C@H](CCC(=O)[*:2])N[*:1]; Palmitoyl = CCCCCCCCCCCCCCCC(=O)*; AEEA = NCCOCCOCC(=O)O; GABA = NCCCC(=O)O

Columns and labels:
[1] = molecular target: T1, human GIP receptor (Homo sapiens, UniProt P48546); assay: 125I-human GIP competition binding assay, in the presence and absence of 2% HSA;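 note: nonspecific binding taken as radioligand bound to untransfected cells, IC50 obtained from nonlinear regression fits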
T1 construct: host or cells: COS-7, transient transfection (calcium phosphate), cDNA in pCMV-Script
T1 sequence (P48546 22-466): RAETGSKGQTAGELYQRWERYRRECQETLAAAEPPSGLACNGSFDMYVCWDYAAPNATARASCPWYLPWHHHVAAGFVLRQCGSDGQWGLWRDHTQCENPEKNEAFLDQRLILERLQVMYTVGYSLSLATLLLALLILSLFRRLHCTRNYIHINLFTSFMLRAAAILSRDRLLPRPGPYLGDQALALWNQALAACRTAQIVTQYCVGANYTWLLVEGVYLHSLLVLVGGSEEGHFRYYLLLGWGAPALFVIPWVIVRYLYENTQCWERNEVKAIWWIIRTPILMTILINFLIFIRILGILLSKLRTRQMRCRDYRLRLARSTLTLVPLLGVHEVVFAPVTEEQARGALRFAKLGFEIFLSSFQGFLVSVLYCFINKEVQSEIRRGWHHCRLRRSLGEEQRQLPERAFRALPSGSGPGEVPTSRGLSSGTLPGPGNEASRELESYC

[2] = molecular target: T1, human GIP receptor; assay: cAMP accumulation assay, agonism (ligand alone); type: cell-based; conditions: COS-7 cells, Table 1; for Emax: COS-7, intrinsic cAMP activity
[3] = molecular target: T1, human GIP receptor; assay: cAMP accumulation assay, antagonism of a GIP-mediated cAMP response (50-80% of max); type: cell-based; conditions: Table 5
Procedure: The day after, the cells were washed twice with Hepes buffered saline (HBS) buffer and incubated with HBS and 1 mM 3-isobutyl-1-methylxanthine (IBMX) for 30 min at 37° C. […] The HitHunter™ cAMP XS assay (DiscoveRx) was carried out according to the manufacturer's instructions.

[4] = heterologous competition binding, transiently transfected COS-7 cells expressing the human GIP receptor, read-out: Binding

| Structure (SMILES) | IC50 [1, 4] [nM] | Emax [2] [%] | other results |
| --- | --- | --- | --- |
| CC[C@H](C)[C@H](NC(=O)[C@H](CO)NC(=O)[C@H](Cc1ccc(O)cc1)NC(=O)[C@H](CC(=O)O)NC(=O)[C@H](CO)NC(=O)[C@@H](NC(=O)[C@H](Cc1ccccc1)NC(=O)[C@@H](N)[C@@H](C)O)[C@@H](C)CC)C(=O)N[C@@H](C)C(=O)N[C@@H](CCSC)C(=O)N[C@@H](CC(=O)O)C(=O)N[C@@H](CCCCNC(=O)CCCCCCCCCCCCCCCCC(=O)O)C(=O)N[C@H](C(=O)N[C@@H](Cc1c[nH]cn1)C(=O)N[C@@H](CCC(N)=O)C(=O)N[C@@H](CCC(N)=O)C(=O)N[C@@H](CC(=O)O)C(=O)N[C@@H](Cc1ccccc1)C(=O)N[C@H](C(=O)N[C@@H](CC(N)=O)C(=O)N[C@@H](Cc1c[nH]c2ccccc12)C(=O)N[C@@H](CC(C)C)C(=O)N[C@@H](CC(C)C)C(=O)N[C@@H](C)C(=O)N[C@@H](CCC(N)=O)C(=O)N[C@@H](CCCCN)C(N)=O)C(C)C)[C@@H](C)CC [AT141, [hGIP(5-30)NH2—C18diacid/16]] | 1900 | 0 | Fold change HSA (2%)/Casein (0.1%) ([1]; IC50 (plus HSA)/IC50 (minus HSA)): 6.5; IC50 ([1]; binding in 0.1% casein (absence of HSA), log value, read-out: logIC50 0.1% casein (converted)): 2000 nM |
| CCCCCCCCCCCC(=O)N[C@@H](CCC(=O)O)C(=O)NCC(=O)N[C@H](C(=O)N[C@@H](Cc1ccccc1)C(=O)N[C@H](C(=O)N[C@@H](CO)C(=O)N[C@@H](CC(=O)O)C(=O)N[C@@H](Cc1ccc(O)cc1)C(=O)N[C@@H](CO)C(=O)N[C@H](C(=O)N[C@@H](C)C(=O)N[C@@H](CCSC)C(=O)N[C@@H](CC(=O)O)C(=O)N[C@@H](CCCCN)C(=O)N[C@H](C(=O)N[C@@H](Cc1c[nH]cn1)C(=O)N[C@@H](CCC(N)=O)C(=O)N[C@@H](CCC(N)=O)C(=O)N[C@@H](CC(=O)O)C(=O)N[C@@H](Cc1ccccc1)C(=O)N[C@H](C(=O)N[C@@H](CC(N)=O)C(=O)N[C@@H](Cc1c[nH]c2ccccc12)C(=O)N[C@@H](CC(C)C)C(=O)N[C@@H](CC(C)C)C(=O)N[C@@H](C)C(=O)N[C@@H](CCC(N)=O)C(=O)N[C@@H](CCCCN)C(N)=O)C(C)C)[C@@H](C)CC)[C@@H](C)CC)[C@@H](C)CC)[C@@H](C)O [AT148, [hGIP(3-30)NH2—C12/3]] | 24 | 43 | EC50 ([2]; read-out: cAMP agonism nM (EC50)): 13 nM |
| CCCCCCCCCCCC(=O)NCCCC[C@H](NC(=O)[C@H](CC(=O)O)NC(=O)[C@H](CCSC)NC(=O)[C@H](C)NC(=O)[C@@H](NC(=O)[C@H](CO)NC(=O)[C@H](Cc1ccc(O)cc1)NC(=O)[C@H](CC(=O)O)NC(=O)[C@H](CO)NC(=O)[C@@H](NC(=O)[C@H](Cc1ccccc1)NC(=O)[C@@H](NC(=O)CNC(=O)[C@@H](N)CCC(=O)O)[C@@H](C)O)[C@@H](C)CC)[C@@H](C)CC)C(=O)N[C@H](C(=O)N[C@@H](CCCNC(=N)N)C(=O)N[C@@H](CCC(N)=O)C(=O)N[C@@H](CCC(N)=O)C(=O)N[C@@H](CC(=O)O)C(=O)N[C@@H](Cc1ccccc1)C(=O)N[C@H](C(=O)N[C@@H](CC(N)=O)C(=O)N[C@@H](Cc1c[nH]c2ccccc12)C(=O)N[C@@H](CC(C)C)C(=O)N[C@@H](CC(C)C)C(=O)N[C@@H](C)C(=O)N[C@@H](CCC(N)=O)C(=O)N[C@@H](CCCNC(=N)N)C(N)=O)C(C)C)[C@@H](C)CC [AT153, [hGIP(3-30)NH2[H18R; K30R]-C12/16]] | 316 | 0 | – |
| CCCCCCCCCCCC(=O)NCCCC[C@H](NC(=O)[C@H](CC(=O)O)NC(=O)[C@H](CCSC)NC(=O)[C@H](C)NC(=O)[C@@H](NC(=O)[C@H](CO)NC(=O)[C@H](Cc1ccc(O)cc1)NC(=O)[C@H](CC(=O)O)NC(=O)[C@H](CO)NC(=O)[C@@H](NC(=O)[C@H](Cc1ccccc1)NC(=O)[C@@H](NC(=O)CNC(=O)[C@@H](N)CCC(=O)O)[C@@H](C)O)[C@@H](C)CC)[C@@H](C)CC)C(=O)N[C@H](C(=O)N[C@@H](Cc1c[nH]cn1)C(=O)N[C@@H](CCC(N)=O)C(=O)N[C@@H](CCC(N)=O)C(=O)N[C@@H](CC(=O)O)C(=O)N[C@@H](Cc1ccccc1)C(=O)N[C@H](C(=O)N[C@@H](CC(N)=O)C(=O)N[C@@H](Cc1c[nH]c2ccccc12)C(=O)N[C@@H](CC(C)C)C(=O)N[C@@H](CC(C)C)C(=O)N[C@@H](C)C(=O)N[C@@H](CCC(N)=O)C(=O)N[C@@H](CCCCN)C(N)=O)C(C)C)[C@@H](C)CC [AT154, [hGIP(3-30)NH2—C12/16]] | 27 | – | cAMP agonism Emax ([2]; intrinsic cAMP activity): 0% |
| CCCCCCCCCCCCCCCCCC(=O)NCCCC[C@H](NC(=O)[C@H](CC(=O)O)NC(=O)[C@H](CCSC)NC(=O)[C@H](C)NC(=O)[C@@H](NC(=O)[C@H](CO)NC(=O)[C@H](Cc1ccc(O)cc1)NC(=O)[C@H](CC(=O)O)NC(=O)[C@H](CO)NC(=O)[C@@H](NC(=O)[C@H](Cc1ccccc1)NC(=O)[C@@H](NC(=O)CNC(=O)[C@@H](N)CCC(=O)O)[C@@H](C)O)[C@@H](C)CC)[C@@H](C)CC)C(=O)N[C@H](C(=O)N[C@@H](CCCNC(=N)N)C(=O)N[C@@H](CCC(N)=O)C(=O)N[C@@H](CCC(N)=O)C(=O)N[C@@H](CC(=O)O)C(=O)N[C@@H](Cc1ccccc1)C(=O)N[C@H](C(=O)N[C@@H](CC(N)=O)C(=O)N[C@@H](Cc1c[nH]c2ccccc12)C(=O)N[C@@H](CC(C)C)C(=O)N[C@@H](CC(C)C)C(=O)N[C@@H](C)C(=O)N[C@@H](CCC(N)=O)C(=O)N[C@@H](CCCNC(=N)N)C(N)=O)C(C)C)[C@@H](C)CC [AT162, [hGIP(3-30)NH2[H18R; K30R]-C18/16]] | – | 44 | Fold change in affinity, IC50 (plus HSA)/IC50 (minus HSA) ([1]; presence vs absence of 2% HSA, proxy for albumin binding): 5.6 fold |
| CCCCCCCCCCCCCCCC(=O)NCCCC[C@H](NC(=O)[C@H](CC(=O)O)NC(=O)[C@H](CCSC)NC(=O)[C@H](C)NC(=O)[C@@H](NC(=O)[C@H](CO)NC(=O)[C@H](Cc1ccc(O)cc1)NC(=O)[C@H](CC(=O)O)NC(=O)[C@H](CO)NC(=O)[C@@H](NC(=O)[C@H](Cc1ccccc1)NC(=O)[C@@H](NC(=O)CNC(=O)[C@@H](N)CCC(=O)O)[C@@H](C)O)[C@@H](C)CC)[C@@H](C)CC)C(=O)N[C@H](C(=O)N[C@@H](CCCCN)C(=O)N[C@@H](CCC(N)=O)C(=O)N[C@@H](CCC(N)=O)C(=O)N[C@@H](CC(=O)O)C(=O)N[C@@H](Cc1ccccc1)C(=O)N[C@H](C(=O)N[C@@H](CC(N)=O)C(=O)N[C@@H](Cc1c[nH]c2ccccc12)C(=O)N[C@@H](CC(C)C)C(=O)N[C@@H](CC(C)C)C(=O)N[C@@H](C)C(=O)N[C@@H](CCC(N)=O)C(=O)N[C@@H](CCCCN)C(N)=O)C(C)C)[C@@H](C)CC [AT163, [hGIP(3-30)NH2[H18K]-C16/16]] (H-EGTFISDYSIAMDK(Palmitoyl)IKQQDFVNWLLAQK-NH2; N-terminus assumed) | 205 | 0 | – |
| CCCCCCCCCCCCCCCC(=O)NCCCC(=O)NCCCC[C@H](NC(=O)[C@@H](NC(=O)[C@H](CCCCN)NC(=O)[C@H](CC(=O)O)NC(=O)[C@H](CCSC)NC(=O)[C@H](C)NC(=O)[C@@H](NC(=O)[C@H](CO)NC(=O)[C@H](Cc1ccc(O)cc1)NC(=O)[C@H](CC(=O)O)NC(=O)[C@H](CO)NC(=O)[C@@H](NC(=O)[C@H](Cc1ccccc1)NC(=O)[C@@H](NC(=O)CNC(=O)[C@@H](N)CCC(=O)O)[C@@H](C)O)[C@@H](C)CC)[C@@H](C)CC)[C@@H](C)CC)C(=O)N[C@@H](CCC(N)=O)C(=O)N[C@@H](CCC(N)=O)C(=O)N[C@@H](CC(=O)O)C(=O)N[C@@H](Cc1ccccc1)C(=O)N[C@H](C(=O)N[C@@H](CC(N)=O)C(=O)N[C@@H](Cc1c[nH]c2ccccc12)C(=O)N[C@@H](CC(C)C)C(=O)N[C@@H](CC(C)C)C(=O)N[C@@H](C)C(=O)N[C@@H](CCC(N)=O)C(=O)N[C@@H](CCCCN)C(N)=O)C(C)C [AT165, [hGIP(3-30)NH2[H18K]-C16/18+y-aminobuturic acid]] (H-EGTFISDYSIAMDKIK([GABA-Palmitoyl])QQDFVNWLLAQK-NH2; N-terminus assumed) | – | – | Fold change from GIP(3-30)NH2 (increase in potency) [3]: 2.9 fold |
| CCCCCCCCCCCCCCCC(=O)NCCOCCOCC(=O)N[C@@H](CCC(=O)NCCCC[C@H](NC(=O)[C@@H](NC(=O)[C@H](CCCCN)NC(=O)[C@H](CC(=O)O)NC(=O)[C@H](CCSC)NC(=O)[C@H](C)NC(=O)[C@@H](NC(=O)[C@H](CO)NC(=O)[C@H](Cc1ccc(O)cc1)NC(=O)[C@H](CC(=O)O)NC(=O)[C@H](CO)NC(=O)[C@@H](NC(=O)[C@H](Cc1ccccc1)NC(=O)[C@@H](NC(=O)CNC(=O)[C@@H](N)CCC(=O)O)[C@@H](C)O)[C@@H](C)CC)[C@@H](C)CC)[C@@H](C)CC)C(=O)N[C@@H](CCC(N)=O)C(=O)N[C@@H](CCC(N)=O)C(=O)N[C@@H](CC(=O)O)C(=O)N[C@@H](Cc1ccccc1)C(=O)N[C@H](C(=O)N[C@@H](CC(N)=O)C(=O)N[C@@H](Cc1c[nH]c2ccccc12)C(=O)N[C@@H](CC(C)C)C(=O)N[C@@H](CC(C)C)C(=O)N[C@@H](C)C(=O)N[C@@H](CCC(N)=O)C(=O)N[C@@H](CCCCN)C(N)=O)C(C)C)C(=O)O [AT167, [hGIP(3-30)NH2[H18K]-C16/18+y-glutamic acid+8-amino-3,6-dioxaoctanoic acid]] (H-EGTFISDYSIAMDKIK([γGlu-AEEA-Palmitoyl])QQDFVNWLLAQK-NH2) | – | – | Fold change from GIP(3-30)NH2 (increase in potency) [3]: 14.8 fold |
